US12251407B2, “Use of Megamonas funiformis in preventing and/or treating metabolic diseases” (BGI SHENZHEN, priority 2018, dated 2025)
Marks after values point to notes of the source that are not given here.

Key:
AF24-28AC = assay: Antibiotic sensitivity of AF24-28AC, drug sensitive paper method; type: cell-based, Megamonas funiformis; settings: for Diameter of inhibition zone: antibiotic susceptibility papers on AF24-28AC plates, 37° C., 48 hours; for Sensitivity of AF24-28AC to the antibiotic (resistant / sensitive): drug sensitive paper method
Method: The sensitivity of AF24-28AC to 20 common antibiotics was tested by the drug sensitive paper method. 100 μl of AF24-28AC bacterial solution cultured to the logarithmic phase was spread plated. Antibiotic susceptibility papers (purchased from Hangzhou Microbial Reagent Co. LTD) were affixed on the medium surface of plates, cultured at 37° C. for 48 hours, after which the size of inhibition zone was measured.

T2D mice model [1] = assay: T2D animal model, fasting blood glucose; type: in vivo, C57bL/6 mice; settings: tail vein blood
Method: (§1) The T2D animal model is constructed by using C57bL/6 mice (purchased from Guangdong Medical Experimental Animal Center) at 8 weeks old and 20±2 g of body weight. The mice are housed in a specific pathogen free (SPF) environment and adaptively fed for 1 week, followed by grouping and modeling. The T2D animal model is induced by injection of streptozotocin (STZ) along with feeding high-fat feed, and the mice having a fasting blood glucose (FBG) reaching 10 mM/L can be used as a T2D mice model. Fifty mice selected for experiments are randomly divided into 5 groups. • Model group: the T2D mice model was administered with saline solution by gavage; • Bacterial agent group 1: the T2D mice model was administered with the DSM 19343 bacterial solution (1×10^8 cfu/m1) by gavage; • Bacterial agent group 2: the T2D mice model was administered with the AF24-28AC bacterial solution (1×10^8 cfu/m1) by gavage; • Bacterial agent group 3: the T2D mice model was administered with the JCM 14723 bacterial solution (1×10^8 cfu/m1) by gavage; • Metformin treatment group: the T2D mice model was treated with the positive drug metformin.
(§2) The experiment was carried out based on the different groups. After the construction of T2D mice model (i.e., FBG>10), the treatment was started and lasted for 2 months. The food intake amount and body weight of mice were recorded daily. Blood of mice was collected from the tail vein every week for detection of fasting blood glucose. The oral glucose tolerance test (OGTT) of mice was measured at week 4 of treatment and at the end of the experiment.

T2D mice model [2] = assay: T2D animal model, oral glucose tolerance test (OGTT); type: in vivo, C57bL/6 mice
Method: as §1, §2

T2D mice model [3] = assay: T2D animal model (STZ plus high-fat feed), body weight; type: in vivo, C57bL/6 mice; settings: gavage
Method: as §1, §2

| Compound | Diameter of inhibition zone (AF24-28AC) [cm] | also measured |
| --- | --- | --- |
| NCC[C@H](O)C(=O)N[C@@H]1C[C@H](N)[C@@H](O[C@H]2O[C@H](CN)[C@@H](O)[C@H](O)[C@H]2O)[C@H](O)[C@H]1O[C@H]1O[C@H](CO)[C@@H](O)[C@H](N)[C@H]1O [Amikacin] | 2.6 | – |
| CC1(C)S[C@@H]2[C@H](NC(=O)[C@H](N)c3ccccc3)C(=O)N2[C@H]1C(=O)O [Ampicillin] | 1.0 | – |
| CC1(C)S[C@@H]2[C@H](NC(=O)C(C(=O)O)c3ccccc3)C(=O)N2[C@H]1C(=O)O (some centres unmarked) [Carbenicillin] | 1.2 | – |
| CC1=C(C(=O)O)N2C(=O)[C@@H](NC(=O)[C@H](N)c3ccccc3)[C@H]2SC1 [Cefalexin] | 2.2 | – |
| Cc1nnc(SCC2=C(C(=O)O)N3C(=O)[C@@H](NC(=O)Cn4cnnn4)[C@H]3SC2)s1 [Cefazolin] | 4.0 | – |
| CCN1CCN(C(=O)N[C@@H](C(=O)N[C@@H]2C(=O)N3C(C(=O)O)=C(CSc4nnnn4C)CS[C@H]23)c2ccc(O)cc2)C(=O)C1=O [Cefoperazone] | 0.0 | Sensitivity of AF24-28AC to the antibiotic (resistant / sensitive) (AF24-28AC): resistant |
| CC1=C(C(=O)O)N2C(=O)[C@@H](NC(=O)[C@H](N)C3=CCC=CC3)[C@H]2SC1 [Cefradine] | 0.8 | – |
| CO/N=C(\C(=O)N[C@@H]1C(=O)N2C(C(=O)O)=C(CSc3nc(=O)c(=O)[nH]n3C)CS[C@H]12)c1csc(N)n1 [Ceftriaxone Sodium] | 1.0 | – |
| CO/N=C(\C(=O)N[C@@H]1C(=O)N2C(C(=O)O)=C(COC(N)=O)CS[C@H]12)c1ccco1 [Cefuroxime] | 3.8 | – |
| C[C@H]1c2cccc(O)c2C(=O)C2=C(O)[C@]3(O)C(=O)C(C(N)=O)=C(O)[C@@H](N(C)C)[C@@H]3[C@@H](O)[C@@H]21 [Doxycycline] | 4.0 | – |
| CC[C@H]1OC(=O)[C@H](C)[C@@H](O[C@H]2C[C@@](C)(OC)[C@@H](O)[C@H](C)O2)[C@H](C)[C@@H](O[C@@H]2O[C@H](C)C[C@H](N(C)C)[C@H]2O)[C@](C)(O)C[C@@H](C)C(=O)[C@H](C)[C@@H](O)[C@]1(C)O [Erythromycin] | 1.3 | – |
| CC(C)(O/N=C(\C(=O)N[C@@H]1C(=O)N2C(C(=O)[O-])=C(C[n+]3ccccc3)CS[C@H]12)c1csc(N)n1)C(=O)O [Fortum (Ceftazidime), Ceftazidime] | 2.0 | – |
| NC[C@H]1O[C@H](O[C@H]2[C@H](O)[C@@H](O[C@H]3O[C@H](CO)[C@@H](O)[C@H](N)[C@H]3O)[C@H](N)C[C@@H]2N)[C@H](O)[C@@H](O)[C@@H]1O [Kanamycin] | 1.8 | – |
| CN(C)C(=N)N=C(N)N [Metformin, metformin] | – | Fasting blood glucose Week 1 (T2D mice model [1]; Week 1): 16.9 mmol/L; Fasting blood glucose Week 3 (T2D mice model [1]; Week 3): 16.0 mmol/L; Fasting blood glucose Week 5 (T2D mice model [1]; Week 5): 14.3 mmol/L; Fasting blood glucose Week 7 (T2D mice model [1]; Week 7): 11.6* mmol/L; Fasting blood glucose Week 9 (T2D mice model [1]; Week 9): 10.3** mmol/L; Glucose tolerance (OGTT) blood glucose 0 minute (T2D mice model [2]; 0 minute after glucose by gavage): 9.3 mmol/L; Glucose tolerance (OGTT) blood glucose 30 minutes (T2D mice model [2]; 30 minutes after glucose by gavage): 19.4 mmol/L; Glucose tolerance (OGTT) blood glucose 60 minutes (T2D mice model [2]; 60 minutes after glucose by gavage): 16.6 mmol/L; Glucose tolerance (OGTT) blood glucose 90 minutes (T2D mice model [2]; 90 minutes after glucose by gavage): 11.7* mmol/L; Glucose tolerance (OGTT) blood glucose 120 minutes (T2D mice model [2]; 120 minutes after glucose by gavage): 10.4 mmol/L; Weight change Week 1 (T2D mice model [3]; Week 1): 20.33 g; Weight change Week 3 (T2D mice model [3]; Week 3): 22.36 g; Weight change Week 5 (T2D mice model [3]; Week 5): 24.33 g; Weight change Week 7 (T2D mice model [3]; Week 7): 25.86 g; Weight change Week 9 (T2D mice model [3]; Week 9, *P<0.05 relative to model group): 26.53* g |
| CN(C)c1ccc(O)c2c1C[C@H]1C[C@H]3[C@H](N(C)C)C(O)=C(C(N)=O)C(=O)[C@@]3(O)C(O)=C1C2=O [Minocin (Minocycline), Minocycline] | 4.0 | – |
| Cc1onc(-c2ccccc2)c1C(=O)N[C@@H]1C(=O)N2[C@@H]1SC(C)(C)[C@@H]2C(=O)O [Oxacillin] | 0.0 | Sensitivity of AF24-28AC to the antibiotic (resistant / sensitive) (AF24-28AC): resistant |
| CCN1CCN(C(=O)N[C@@H](C(=O)N[C@@H]2C(=O)N3[C@@H]2SC(C)(C)[C@@H]3C(=O)O)c2ccccc2)C(=O)C1=O [Piperacillin] | 1.2 | – |
| CN(C)[C@@H]1C(O)=C(C(N)=O)C(=O)[C@@]2(O)C(O)=C3C(=O)c4c(O)cccc4[C@@](C)(O)[C@H]3C[C@@H]12 [Tetracycline] | 4.2 | – |
| Gentamicin | 1.7 | – |
| Neomycin | 1.3 | – |
| Penicillin | 0.0 | Sensitivity of AF24-28AC to the antibiotic (resistant / sensitive) (AF24-28AC): resistant |
